Test results published in US5316929A, “Process for the preparation of MA” (Hoechst Aktiengesellschaft, priority 1991, dated 1994).
“Also recorded” adds a separate entry of the source.

System: biosynthesis of the peptidoglycan framework of the bacterial cell wall
Assay: not given
Conditions: cited from earlier work

| Compound | Inhibition of the biosynthesis of the peptidoglycan framework of the bacterial cell wall |
| --- | --- |
| C=C(C/C=C(\C)CCC=C(C)C)CCC(C)(C)/C=C/CC/C(C)=C/CO[C@@H](COP(=O)(O)O[C@H]1O[C@H](C(N)=O)[C@@](C)(O)[C@H](OC(N)=O)[C@H]1O[C@@H]1O[C@H](CO[C@@H]2O[C@H](CO)[C@@H](O)[C@H](O)[C@H]2O)[C@@H](O[C@@H]2O[C@H](C)[C@@H](O[C@@H]3O[C@H](C(=O)NC4=C(O)CCC4=O)[C@H](O)[C@H](O)[C@H]3O)[C@H](O)[C@H]2NC(C)=O)[C@H](O)[C@H]1NC(C)=O)C(=O)O [Moenomycin A] | inhibits |

System: moenomycinase
Assay: Moenomycinase activity (cleavage of moenomycin A, TLC/UV analysis)
Format: biochemical, Bacillus sp. DSM 4675
Conditions: EDTA 10 mM in FIG. 1
Method: Partially purified moenomycinase was dialyzed for 24 hours. The dialyzed moenomycinase was incubated with moenomycin A (6 mg/ml) in 100 mM potassium phosphate buffer, pH 8.0, for 31 hours with the addition of metal ions (0.5 or 1.0 mM, except K^+ =20 mM0 or EDTA (10 mM). Enzyme activity was measured by determining the amount of MC formed using TLC and UV analysis as described in Example 3. The TLC plates were scanned at a wavelength of 254 nm using a DESAGA Chromatogram Densitometer CD50. Enzyme activity is expressed relative to the activity of the dialyzed preparation ("Dial").
FIG. 2. Activation of Moenomycinase by Cobalt. Purified moenomycinase was incubated with moenomycin A in the presence of the indicated concentrations of Co^++. Enzyme activity was measured by determining the amount of MB formed using TLC and UV analysis as described in FIG. 1.
The molecular weight of moenomycinase is 230,000±10,000 Dalton. Moenomycinase has an optical pH of 8.0 to 8.5 and an optimal temperature of 45° to 55° C. Moenomycinase has a Km value of 4 to 10 mmolar based on moenomycin A as substrate.

| Compound | Inhibition of moenomycinase |
| --- | --- |
| CC(=O)OCC1=C(C(=O)O)N2C(=O)[C@@H](NC(=O)CCC[C@@H](N)C(=O)O)[C@H]2SC1 [Cephalosporin C] | inhibited |
| CC(=O)OCC1=C(C(=O)O)N2C(=O)[C@@H](N)[C@H]2SC1 [7-aminocephalosporin acid (7-ACA), 7-aminocephalosporin acid] | inhibited |
| O=C(O)CN(CCN(CC(=O)O)CC(=O)O)CC(=O)O [EDTA] | inhibited |
| C=O [formalin] | inhibited |

Same assay, conditions: metal ions 0.05-1.0 mM

| Compound | Activation of moenomycinase |
| --- | --- |
| [Co+2] [Co^++] | activated |
| [Ca+2] [Ca^++] | activated |
| [Ni+2] [Ni^++] | activated; also recorded: greatest activation |
| [Mg+2] [Mg^++] | activated |
